Values joined by “and” are separate entries in the source; they are usually repeats but may differ in a detail not shown here. Equal values may be shown once. Toxic doses and inconclusive results are not listed. How the source made its calls: active means survival T/C of 150% or more; inactive means T/C below 125% in these data.
System: P388 leukemia ip, CD2F1 mice, survival T/C
Assay: NCI In Vivo Anticancer Drug Screen. Data for tumor model P388 Leukemia (intraperitoneal) in CD2F1 (CDF1) mice
Conditions: endpoint: median survival time, higher = longer survival
Procedure, shortened: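 Mice carrying the transplanted tumor received test compound or vehicle. Survival was recorded in each group, and the value is the treated-group measurement divided by that of the vehicle-treated control group.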

[1] = dose: 6.25 mg/kg/injection, schedule: Q01DX009 (ip), vehicle: saline
[2] = dose: 12.5 mg/kg/injection, schedule: Q01DX009 (ip), vehicle: saline
[3] = dose: 100.0 mg/kg/injection, schedule: Q01DX009 (ip), vehicle: saline
[4] = dose: 200.0 mg/kg/injection, schedule: Q01DX009 (ip), vehicle: saline
[5] = dose: 50.0 mg/kg/injection, schedule: Q01DX005 (ip), vehicle: saline with Tween-80
[6] = dose: 60.0 mg/kg/injection, schedule: Q01DX005 (ip), vehicle: saline with Tween-80
[7] = dose: 120.0 mg/kg/injection, schedule: Q01DX005 (ip), vehicle: saline with Tween-80
[8] = dose: 240.0 mg/kg/injection, schedule: Q01DX005 (ip), vehicle: saline with Tween-80
[9] = dose: 50.0 mg/kg/injection, schedule: Q01DX005 (ip), vehicle: saline
[10] = dose: 50.0 mg/kg/injection, schedule: Q01DX009 (ip), vehicle: saline with Tween-80
[11] = dose: 100.0 mg/kg/injection, schedule: Q01DX009 (ip), vehicle: saline with Tween-80
[12] = dose: 200.0 mg/kg/injection, schedule: Q01DX009 (ip), vehicle: saline with Tween-80

Measured: T/C

COc1ccc(/C=C2\CCOc3ccc(C)cc3C2=O)cc1
inactive: dose: 100.0 mg/kg/injection, schedule: Q04DX003 (ip), vehicle: Klucel (hydroxypropylcellulose) (HPC) 94 % of control | dose: 200.0 mg/kg/injection, schedule: Q04DX003 (ip), vehicle: Klucel (hydroxypropylcellulose) (HPC) 96 % of control | dose: 400.0 mg/kg/injection, schedule: Q04DX003 (ip), vehicle: Klucel (hydroxypropylcellulose) (HPC) 102 % of control

N#Cc1cc(Br)ccc1[N+](=O)[O-]
inactive: [1] 103 % of control | [2] 101 % of control | dose: 50.0 mg/kg/injection, schedule: Q01DX009 (ip), vehicle: saline 94 % of control | [3] 90 % of control | [4] 99 % of control

COC(=O)C(NC(=O)OCc1ccccc1)C(C)O (stereo unspecified)
inactive: dose: 12.5 mg/kg/injection, schedule: Q01DX009 (ip), vehicle: distilled water + Tween-80 90 % of control | dose: 25.0 mg/kg/injection, schedule: Q01DX009 (ip), vehicle: distilled water + Tween-80 102 % of control | dose: 50.0 mg/kg/injection, schedule: Q01DX009 (ip), vehicle: distilled water + Tween-80 100 % of control | dose: 100.0 mg/kg/injection, schedule: Q01DX009 (ip), vehicle: distilled water + Tween-80 105 % of control | dose: 200.0 mg/kg/injection, schedule: Q01DX009 (ip), vehicle: distilled water + Tween-80 94 % of control

C/C(=N/NC(=O)CCl)c1ccccc1
inactive: dose: 75.0 mg/kg/injection, schedule: Q01DX009 (ip), vehicle: saline with Tween-80 108 % of control

COC(=O)c1cc(-c2ccncc2)[nH]c(=O)c1C#N
inactive: dose: 60.0 mg/kg/injection, schedule: Q01DX005 (ip), vehicle: saline 101 % of control | dose: 120.0 mg/kg/injection, schedule: Q01DX005 (ip), vehicle: saline 99 % of control | dose: 240.0 mg/kg/injection, schedule: Q01DX005 (ip), vehicle: saline 94 % of control

CCC[As](CCC)SC1CC(OC(=O)c2ccccc2)C(OC(=O)c2ccccc2)C(COC(=O)c2ccccc2)O1 (stereo unspecified)
inactive: dose: 50.0 mg/kg/injection, schedule: Q01DX009 (ip), vehicle: saline + alcohol 100 % of control | dose: 100.0 mg/kg/injection, schedule: Q01DX009 (ip), vehicle: saline + alcohol 102 % of control | dose: 200.0 mg/kg/injection, schedule: Q01DX009 (ip), vehicle: saline + alcohol 102 % of control

COC(=O)CCCCc1ccc(CCCCC(=O)OC)c2ccccc12
inactive: dose: 50.0 mg/kg/injection, schedule: Q01DX009 (ip), vehicle: other 103 % of control | dose: 100.0 mg/kg/injection, schedule: Q01DX009 (ip), vehicle: other 100 % of control | dose: 200.0 mg/kg/injection, schedule: Q01DX009 (ip), vehicle: other 97 % of control

CC(C)(CCC(C)(C)NC(=O)C12CC3CC(CC(C3)C1)C2)NC(=O)C12CC3CC(CC(C3)C1)C2
inactive: [5] 90 % of control | dose: 100.0 mg/kg/injection, schedule: Q01DX005 (ip), vehicle: saline with Tween-80 97 % of control | dose: 200.0 mg/kg/injection, schedule: Q01DX005 (ip), vehicle: saline with Tween-80 97 % of control

COc1ccccc1C(=O)Nc1c(C)cccc1Cl
inactive: [6] 100 % of control | [7] 103 % of control | [8] 94 % of control

CC(O)C1CCCCN1 (stereo unspecified)
inactive: [9] 101 % of control | dose: 100.0 mg/kg/injection, schedule: Q01DX005 (ip), vehicle: saline 101 % of control | dose: 200.0 mg/kg/injection, schedule: Q01DX005 (ip), vehicle: saline 108 % of control

O=S(=O)(O)O
inactive: dose: 30.0 mg/kg/injection, schedule: Q01DX009 (ip), vehicle: water 108 % of control | dose: 100.0 mg/kg/injection, schedule: Q01DX009 (ip), vehicle: water 86 % of control

O=C1/C(=C(\Cl)c2ccccc2)Cc2ccccc21
inactive: dose: 75.0 mg/kg/injection, schedule: Q01DX001 (ip), vehicle: saline sonified 100 % of control | dose: 150.0 mg/kg/injection, schedule: Q01DX001 (ip), vehicle: saline sonified 95 % of control | dose: 300.0 mg/kg/injection, schedule: Q01DX001 (ip), vehicle: saline sonified 118 % of control

CC(C)c1cc(/C=C2/OC(=O)c3ccccc32)cc(C(C)C)c1O
inactive: dose: 100.0 mg/kg/injection, schedule: Q04DX002 (ip), vehicle: saline 101 % of control | dose: 200.0 mg/kg/injection, schedule: Q04DX002 (ip), vehicle: saline 100 % of control | dose: 400.0 mg/kg/injection, schedule: Q04DX002 (ip), vehicle: saline 106 % of control

FC(F)(F)C1(C(F)(F)F)N=CC=CN1
inactive: dose: 50.0 mg/kg/injection, schedule: Q01DX009 (ip), vehicle: distilled water + alcohol 101 % of control | dose: 100.0 mg/kg/injection, schedule: Q01DX009 (ip), vehicle: distilled water + alcohol 95 % of control

CC(C)(C)/[N+]([O-])=C/C1(C2(/C=[N+](\[O-])C(C)(C)C)Cc3ccccc3C2=O)Cc2ccccc2C1=O (stereo unspecified)
inactive: [6] 101 % of control | [7] 105 % of control | [8] 103 % of control

[Cl][Ru]([Cl])([Cl])([Cl])([Cl])[Cl]
inactive: dose: 6.25 mg/kg/injection, schedule: Q04DX003 (ip), vehicle: saline 117 % of control and 123 % of control | dose: 12.5 mg/kg/injection, schedule: Q04DX003 (ip), vehicle: saline 117 % of control and 123 % of control | dose: 25.0 mg/kg/injection, schedule: Q04DX003 (ip), vehicle: saline 117 % of control | dose: 50.0 mg/kg/injection, schedule: Q04DX003 (ip), vehicle: saline 123 % of control | dose: 100.0 mg/kg/injection, schedule: Q04DX003 (ip), vehicle: saline 111 % of control

OCC12C=COC1OC2(c1ccccc1)c1ccccc1 (stereo unspecified)
inactive: dose: 15.0 mg/kg/injection, schedule: Q01DX005 (ip), vehicle: saline with Tween-80 100 % of control | dose: 30.0 mg/kg/injection, schedule: Q01DX005 (ip), vehicle: saline with Tween-80 95 % of control | [6] 89 % of control and 98 % of control

OC(c1cc2cc(Br)ccc2c2cc(Br)ccc12)C1CCCCN1 (stereo unspecified)
inactive: dose: 6.25 mg/kg/injection, schedule: Q01DX009 (ip), vehicle: saline with Tween-80 107 % of control | dose: 12.5 mg/kg/injection, schedule: Q01DX009 (ip), vehicle: saline with Tween-80 109 % of control | dose: 25.0 mg/kg/injection, schedule: Q01DX009 (ip), vehicle: saline with Tween-80 101 % of control

O=C1CSC(=O)N1c1ccc(F)cc1
inactive: [1] 98 % of control | [2] 113 % of control | dose: 25.0 mg/kg/injection, schedule: Q01DX009 (ip), vehicle: saline 114 % of control | [10] 106 % of control | [11] 104 % of control | [12] 87 % of control

CCCCN(CCCC)CC(O)c1c(OC)ccc2ccccc12 (stereo unspecified)
inactive: dose: 12.5 mg/kg/injection, schedule: Q01DX005 (ip), vehicle: saline 100 % of control | dose: 25.0 mg/kg/injection, schedule: Q01DX005 (ip), vehicle: saline 98 % of control | [5] 119 % of control | [9] 105 % of control

COC(=O)c1ccc(SCCCN2CCOCC2)cc1
inactive: [3] 91 % of control | dose: 176.0 mg/kg/injection, schedule: Q04DX003 (ip), vehicle: saline 90 % of control | [4] 91 % of control | dose: 264.0 mg/kg/injection, schedule: Q04DX003 (ip), vehicle: saline 95 % of control | dose: 400.0 mg/kg/injection, schedule: Q01DX009 (ip), vehicle: saline 100 % of control | dose: 400.0 mg/kg/injection, schedule: Q04DX003 (ip), vehicle: saline 104 % of control

Cc1cc(C)n(C2=NC3(C)NC(=O)NC3(C)N2)n1 (stereo unspecified)
inactive: dose: 50.0 mg/kg/injection, schedule: Q04DX002 (ip), vehicle: saline with Tween-80 98 % of control | dose: 100.0 mg/kg/injection, schedule: Q04DX002 (ip), vehicle: saline with Tween-80 94 % of control | dose: 200.0 mg/kg/injection, schedule: Q04DX002 (ip), vehicle: saline with Tween-80 98 % of control

C=CC#N
inactive: [10] 99 % of control | [11] 95 % of control | [12] 90 % of control

CCC[CH2][Sn]1([CH2]CCC)[O]C(=O)c2c(Cl)c(Cl)c(Cl)c(Cl)c2C(=O)[O]1
inactive: dose: 1.56 mg/kg/injection, schedule: Q01DX005 (ip), vehicle: saline with Tween-80 110 % of control and 115 % of control | dose: 3.13 mg/kg/injection, schedule: Q01DX005 (ip), vehicle: saline with Tween-80 119 % of control and 120 % of control | dose: 6.25 mg/kg/injection, schedule: Q01DX005 (ip), vehicle: saline with Tween-80 119 % of control and 120 % of control

Source: PubChem BioAssay AID330 (DTP/NCI, 2004)
